Test results reported in paper PMC3914206.

Experiments:
Format in all cases: binding
Set-up in all cases: KINOMEscan: ABL1(F317L)-phosphorylated / KINOMEscan: ABL1(H396P)-nonphosphorylated / KINOMEscan: ABL1(H396P)-phosphorylated / KINOMEscan: ABL1(M351T)-phosphorylated / KINOMEscan: ABL1(T315I)-phosphorylated / KINOMEscan: ABL1-nonphosphorylated / KINOMEscan: ABL1-phosphorylated / KINOMEscan: ACVR2A / KINOMEscan: ACVR2B / KINOMEscan: ADCK3 / KINOMEscan: ADCK4 / KINOMEscan: AKT1 / KINOMEscan: AKT3 / KINOMEscan: ALK / KINOMEscan: ARK5 / KINOMEscan: AURKA / KINOMEscan: AURKC / KINOMEscan: BIKE / KINOMEscan: BMPR1A / KINOMEscan: BMPR1B / KINOMEscan: BMX / KINOMEscan: BRK / KINOMEscan: BRSK1 / KINOMEscan: BRSK2 / KINOMEscan: CAMK1 / KINOMEscan: CAMK1D / KINOMEscan: CAMK1G / KINOMEscan: CAMK2A / KINOMEscan: CAMK2B / KINOMEscan: AAK1 / KINOMEscan: CAMK2D / KINOMEscan: CAMK2G / KINOMEscan: ABL1(F317I)-nonphosphorylated / KINOMEscan: ABL1(F317I)-phosphorylated / KINOMEscan: ABL1(F317L)-nonphosphorylated: unit: % Ctrl
Conditions in all cases: Compound Concentration 10 µM
[1] = target: T1, panel of 442 kinases (Homo sapiens, UniProt P00519)
T1 construct: purchased KINOMEscan
T1 sequence (P00519 whole entry): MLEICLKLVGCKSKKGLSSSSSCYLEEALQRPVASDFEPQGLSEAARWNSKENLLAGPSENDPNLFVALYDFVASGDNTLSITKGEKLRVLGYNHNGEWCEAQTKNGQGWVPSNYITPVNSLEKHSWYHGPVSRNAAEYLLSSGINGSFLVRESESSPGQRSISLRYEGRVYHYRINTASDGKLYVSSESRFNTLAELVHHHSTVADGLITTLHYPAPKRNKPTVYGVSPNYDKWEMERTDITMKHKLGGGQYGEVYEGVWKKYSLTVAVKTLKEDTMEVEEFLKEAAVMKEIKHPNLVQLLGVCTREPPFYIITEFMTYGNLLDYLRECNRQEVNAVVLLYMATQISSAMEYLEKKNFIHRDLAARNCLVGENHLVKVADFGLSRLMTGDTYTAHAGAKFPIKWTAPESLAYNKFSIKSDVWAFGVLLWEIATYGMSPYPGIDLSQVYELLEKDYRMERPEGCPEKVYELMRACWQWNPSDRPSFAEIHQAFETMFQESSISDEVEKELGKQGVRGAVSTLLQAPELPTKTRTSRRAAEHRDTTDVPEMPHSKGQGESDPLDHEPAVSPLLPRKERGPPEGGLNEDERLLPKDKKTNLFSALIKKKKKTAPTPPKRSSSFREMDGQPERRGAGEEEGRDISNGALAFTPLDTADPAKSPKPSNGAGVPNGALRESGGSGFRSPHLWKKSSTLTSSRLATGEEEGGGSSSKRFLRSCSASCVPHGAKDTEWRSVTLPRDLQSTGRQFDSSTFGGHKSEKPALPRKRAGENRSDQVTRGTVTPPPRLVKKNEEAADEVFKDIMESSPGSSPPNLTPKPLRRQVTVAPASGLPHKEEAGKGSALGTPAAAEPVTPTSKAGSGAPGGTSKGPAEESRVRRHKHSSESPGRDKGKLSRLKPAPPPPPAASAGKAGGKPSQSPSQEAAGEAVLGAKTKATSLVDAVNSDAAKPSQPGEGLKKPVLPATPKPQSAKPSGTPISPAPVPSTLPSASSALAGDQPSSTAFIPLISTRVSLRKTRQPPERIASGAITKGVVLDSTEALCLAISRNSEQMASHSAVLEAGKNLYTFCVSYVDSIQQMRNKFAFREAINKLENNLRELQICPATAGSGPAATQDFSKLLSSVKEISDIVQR
Text: (§1) We assessed the selectivity of members of this scaffold using the KINOMEscan methodology across a near comprehensive panel of 442 kinases [[18,27]].

[2] = target: T2, panel of 442 kinases (Homo sapiens, UniProt P37023)
T2 construct: purchased KINOMEscan
T2 sequence (P37023 22-503): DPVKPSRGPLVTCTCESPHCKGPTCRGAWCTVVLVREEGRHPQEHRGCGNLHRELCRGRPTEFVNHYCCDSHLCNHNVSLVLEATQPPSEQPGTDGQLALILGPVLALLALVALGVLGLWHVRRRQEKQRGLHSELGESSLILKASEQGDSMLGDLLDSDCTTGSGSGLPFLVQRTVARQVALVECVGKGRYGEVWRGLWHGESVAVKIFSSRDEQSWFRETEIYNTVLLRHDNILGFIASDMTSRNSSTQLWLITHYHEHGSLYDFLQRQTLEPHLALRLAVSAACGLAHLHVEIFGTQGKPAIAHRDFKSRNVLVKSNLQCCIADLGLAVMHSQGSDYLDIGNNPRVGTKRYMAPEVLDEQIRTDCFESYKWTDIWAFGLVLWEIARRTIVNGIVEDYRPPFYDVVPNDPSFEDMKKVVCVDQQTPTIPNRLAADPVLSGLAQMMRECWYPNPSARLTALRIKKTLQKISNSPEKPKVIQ
Text: as §1

[3] = target: T3, panel of 442 kinases (Homo sapiens, UniProt Q8NI60)
T3 construct: purchased KINOMEscan
T3 sequence (Q8NI60 163-647): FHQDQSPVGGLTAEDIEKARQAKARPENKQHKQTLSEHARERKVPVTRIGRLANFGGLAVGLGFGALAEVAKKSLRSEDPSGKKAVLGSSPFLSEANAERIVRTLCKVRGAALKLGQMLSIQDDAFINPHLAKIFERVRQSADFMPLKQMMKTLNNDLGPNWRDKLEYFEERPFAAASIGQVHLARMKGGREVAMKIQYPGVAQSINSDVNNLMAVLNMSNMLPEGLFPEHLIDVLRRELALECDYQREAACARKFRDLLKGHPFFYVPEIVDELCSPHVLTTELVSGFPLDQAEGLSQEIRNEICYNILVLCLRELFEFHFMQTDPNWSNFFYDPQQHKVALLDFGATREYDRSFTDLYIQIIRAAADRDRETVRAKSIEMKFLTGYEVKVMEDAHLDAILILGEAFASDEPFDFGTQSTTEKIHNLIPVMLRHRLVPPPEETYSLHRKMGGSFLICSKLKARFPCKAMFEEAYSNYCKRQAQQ
Text: as §1

## COc1cc(C(=O)N2CCC(N3CCN(C)CC3)CC2)ccc1Nc1ncc2c(n1)N(C)c1ccccc1C(=O)N2C [15 (LRRK2-IN-1)]
[1]
  KINOMEscan: ABL1-nonphosphorylated: 100
  KINOMEscan: ABL1-phosphorylated: 82
[2]
  KINOMEscan: ACVRL1: 100
[3]
  KINOMEscan: ADCK3: 71

## COc1cc(C(=O)N2CCC(N3CCN(C)CC3)CC2)ccc1Nc1ncc2c(n1)N1CCc3cccc(c31)C(=O)N2C [Compound 24]
[1]
  KINOMEscan: ABL1-nonphosphorylated: 60
  KINOMEscan: ABL1-phosphorylated: 81
[3]
  KINOMEscan: ADCK3: 56

## COc1cc(C(=O)N2CCC(N3CCN(C)CC3)CC2)ccc1Nc1ncc2c(n1)N(C1CCCC1)c1ccccc1C(=O)N2C [Compound 25, 11-cyclopentyl-2-((2-methoxy-4-(4-(4-methylpiperazin-1-yl)piperidine-1-carbonyl)phenyl)amino)-5-methyl-5H-benzo[e]pyrimido[5,4-b][1,4]diazepin-6(11H)-one]
[1]
  KINOMEscan: ABL1-nonphosphorylated: 90
  KINOMEscan: ABL1-phosphorylated: 100
[2]
  KINOMEscan: ACVRL1: 100
[3]
  KINOMEscan: ADCK3: 61

## CCOc1cc(C(=O)N2CCC(N3CCN(C)CC3)CC2)ccc1Nc1ncc2c(n1)N(C1CCCC1)c1ccccc1C(=O)N2C [Compound 26]
[1]
  KINOMEscan: ABL1-nonphosphorylated: 96
  KINOMEscan: ABL1-phosphorylated: 100
[2]
  KINOMEscan: ACVRL1: 100
[3]
  KINOMEscan: ADCK3: 59
